The target of the assay is T1, récepteurs 5-HT 1A (Homo sapiens, UniProt P08908).
T1 sequence (P08908 1-422): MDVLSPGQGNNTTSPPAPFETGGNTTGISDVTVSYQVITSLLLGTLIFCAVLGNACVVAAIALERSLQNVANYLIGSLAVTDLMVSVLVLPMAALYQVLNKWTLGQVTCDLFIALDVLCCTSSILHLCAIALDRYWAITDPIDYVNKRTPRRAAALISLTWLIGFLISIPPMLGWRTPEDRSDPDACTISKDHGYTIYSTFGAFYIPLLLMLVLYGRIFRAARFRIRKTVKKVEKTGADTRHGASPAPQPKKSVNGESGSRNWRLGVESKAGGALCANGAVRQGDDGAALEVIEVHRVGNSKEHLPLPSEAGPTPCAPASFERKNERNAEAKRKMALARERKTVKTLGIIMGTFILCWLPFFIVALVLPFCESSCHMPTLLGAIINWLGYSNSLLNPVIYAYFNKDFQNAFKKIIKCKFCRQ
The assay can be described thus: 5-HT 1A receptor binding (radioligand displacement). As to conditions: specific binding to 5-HT 1A receptors; test concentration not given; method cited from M. Hapon, Brain Receptor Methodologies. An excerpt: L'activité de certains composés sur le système nerveux central a été étudiée et plus précisément leur activité sérotoninergique, par leur union spécifique aux récepteurs 5-HT 1A. TABLEAU II
(In general: In a radioligand displacement assay an active substance lowers the binding of a labelled ligand.)

As to `O=C1CC2(CCCC2)CC(=O)N1CCCCN1CCN(c2ncccn2)CC1` [Buspirone, reference compound], the “Binding 5-HT-1A déplacement (%)” value is on record as 99,1%.

As to `Cn1ccnc1C(OCCCCN1CCN(c2ncccn2)CC1)c1ccc(Cl)cc1` (centres unmarked) [Exemple 1], the “Binding 5-HT-1A déplacement (%)” value is 94,7%.

For the compound `Cn1ccnc1C(C)(OCCCCN1CCN(c2ncccn2)CC1)c1ccc(Cl)cc1` (centres unmarked) [Exemple 2], the “Binding 5-HT-1A déplacement (%)” value is recorded as 98,6%.

In the case of `CCCCn1ccnc1C(C)(OCCCCN1CCN(c2ncccn2)CC1)c1cccc(C(F)(F)F)c1` (centres unmarked) [Exemple 3], the “Binding 5-HT-1A déplacement (%)” value is on record as 97,6%.

As to `Cn1ccnc1C(C)(OCCCCN1CCN(c2ncccn2)CC1)c1cccc(C(F)(F)F)c1` (centres unmarked) [Exemple 4], the “Binding 5-HT-1A déplacement (%)” value is recorded as 98,1%.

On to `CCCCn1ccnc1C(OCCCCN1CCN(c2ncccn2)CC1)c1ccc(Cl)cc1` (centres unmarked) [Exemple 5], for which the “Binding 5-HT-1A déplacement (%)” value was 91,5%.

Regarding `CCCCn1ccnc1C(OCCCCN1CCN(c2ncccn2)CC1)c1cccc(C(F)(F)F)c1` (centres unmarked) [Exemple 6], the “Binding 5-HT-1A déplacement (%)” value is listed as 94,6%.

With `Cn1ccnc1C(OCCCCN1CCN(c2ncccn2)CC1)c1cccc(C(F)(F)F)c1` (centres unmarked) [Exemple 7], the “Binding 5-HT-1A déplacement (%)” value is recorded as 98,3%.

With `Cn1nccc1C(OCCCCN1CCN(c2ncccn2)CC1)c1ccc(Cl)cc1` (centres unmarked) [Exemple 8], the “Binding 5-HT-1A déplacement (%)” value is 95,0%.

Regarding `Cn1nccc1C(C)(OCCCCN1CCN(c2ncccn2)CC1)c1ccc(Cl)cc1` (centres unmarked) [Exemple 9], the “Binding 5-HT-1A déplacement (%)” value was 95,0%.

Regarding `O=C1c2ccccc2S(=O)(=O)N1CCCCN1CCN(c2ncccn2)CC1` [Ipsapirone, reference compound], the “Binding 5-HT-1A déplacement (%)” value is 99,6%.

The record behind these values is patent publication EP0382636A1, “Pyrimidine derivatives, 2-[4-(alpha-heteroaryl-alpha-aryl-(alpha-alkyl)-methoxy)-butyl)-1-piperazinyl], with a serotoninergical activity” (LABORATORIOS DEL DR. ESTEVE, S.A., priority 1989, dated 1990).
